Data from US11471508B2, “HMGB1 antagonist treatment of diabetic peripheral neuropathy” (THE FEINSTEIN INSTITUTES FOR MEDICAL RESEARCH, priority 2019, dated 2022).
Entries after “also recorded” stand apart in the source; their conditions may differ. Read-outs that look alike come from different tables or passages of the source.

Assays:
[1] = in vivo; conditions: male, Sprague-Dawley, rat, iv, 1 mg/kg, AUCtest
[2] = Stability under acidic conditions (pH=2), LC-MS; format: physicochemical; conditions: pH=2, two hours
[3] = tested on: HMGB1-induced TNF release; experiment: HMGB1-induced TNF release in human primary macrophages (ELISA); format: cell-based; conditions: FIG. 17A
Experimental: For all of these studies, TNF released was measured using an ELISA.

[4] = tested on: PAMPs (LPS, PGN, AGE and Poly I:C)-induced TNF release; experiment: PAMPs-induced TNF release in human macrophages; format: cell-based; conditions: LPS 4 ng/ml, poly I:C 50 μg/ml, PGN 5 μg/ml, S100A12 50 μg/ml; 16 hours
Experimental: TNF released was measured.

[5] = tested on: APAP-induced liver injury; experiment: APAP-induced liver injury model; format: in vivo, mouse
[6] = tested on: CCI-induced neuropathic pain; experiment: Chronic constriction injury of the sciatic nerve (CCI) neuropathic pain model; format: in vivo, rat
[7] = Pharmacokinetics after intravenous administration at 1 mg/kg in male Sprague-Dawley rats (LC-MS); conditions: Mean
[8] = male, Sprague-Dawley, rat, in vivo
[9] = Degradation in rat plasma and whole blood; format: in vitro ADME
[10] = format: in vivo; conditions: single-dose, rats
[11] = Oral bioavailability; conditions: in vivo
[12] = tested on: DAMPs (CIRP, SAA, PEDF, HSP 70, HSP90, H2A)-induced TNF secretion; experiment: DAMPs-induced TNF secretion in human macrophages; format: cell-based; conditions: 16 hours
[13] = tested on: liver ischemia and reperfusion injury; experiment: Warm liver ischemia and reperfusion (I/R) model; format: in vivo, mouse; conditions: 6 hours after reperfusion, vs vehicle control
Experimental: […] (SEQ ID NO: 1) (or vehicle control) was administered intraperitoneally at 500 μg/mouse at the time of I/R surgery and euthanized 6 hours later. Serum levels of ALT and AST were reduced in […] (SEQ ID NO: 1)-treated group vs. vehicle controls. *: P<0.05 vs. I/R group. n=5-7 mice/group. […] (SEQ ID NO: 1)-treated mice as compared to vehicle control (neutrophil infiltration, arrow). n=3-5 mice per group.

[14] = tested on: STZ-induced diabetes; experiment: STZ-induced diabetes; format: in vivo; conditions: repetitive administration, 500 μg/mouse
Experimental: In Example 21, the effect of selective HMGB1-TLR4/MD-2 inhibition in STZ-induced diabetes was evaluated. Increased levels of HMGB1 have been reported in both diabetic patients and animal models. For example, elevated expression of HMGB1 is found in the retinas of diabetic patients and rat models with retinopathy. ([…]., Upregulation of RAGE and its ligands in proliferative retinal disease, Experimental Eye Research, 2006; 82(5): 807-815; Yu Y., The role of high mobility group box 1 (HMGB-1) in the diabetic retinopathy inflammation and apoptosis, International Journal of Clinical and Experimental Pathology, 2015; 8(6): 6807). […] (Dasu M. […] Based on this literature, tests were conducted on the effects of […] (SEQ ID NO: 1) and […] on STZ-induced diabetes in mice. Mice were administered repetitive administration of […] (500 μg/mouse). […] Repetitive administration of […] was therefore shown to be beneficial in STZ-induced diabetes. […] (*: P<0.05 vs. PBS group. N=6-8 mice per group).

[15] = tested on: HMGB1-induced TNF release; conditions: cited from earlier work
[16] = tested on: APAP-induced liver injury; conditions: cited from earlier work
[17] = tested on: liver ischemia and reperfusion injury; conditions: cited from earlier work
[18] = tested on: TNF release stimulated by LPS, PGN, Poly I:C, CpG DNA or S100 A12; conditions: cited from earlier work

SMILES: NC(=O)N(CCC(=O)O)NC(=O)[C@H](CO)NC(=O)[C@H](CO)NC(=O)N(N)Cc1ccccc1 [K883]
- AUC [1]: 3770 ng·h/mL
- stability to acid hydrolysis [2]: resistant to acid hydrolysis
- HMGB1-induced TNF secretion [3]: causes inhibition
- PAMPs-induced TNF release [4]: failed to inhibit other PAMPS; also recorded: does not inhibit other PAMPs
- liver necrosis (H&E) ([5]; APAP 350 mg/kg, K883 50 μg/mouse IP at 2 and 7 hours, 24 hours post-APAP, vs vehicle): reduced liver necrosis
- mice surviving 2 weeks post-APAP ([5]; APAP 400 mg/kg, 50 μg/mouse IP once-a-day for 5 days from 2 hours post-APAP, control group 8): 14 mice out of 15
- Paw Withdrawal Latency (sec), CCI ([6]; 0 hours post treatment, K883 800 μg/rat or 2g7 300 μg/rat IP): 4.1 ± 1.0 s
- mechanical and thermal hypersensitivity ([6]; 800 μg/rat IP once a day for 3 days, Hargreaves, von Frey): ameliorated both mechanical and thermal hypersensitivity; also recorded: improved CCI-induced thermal and mechanical hypersensitivity
- tolerance to repeated treatment ([6]; 800 μg/rat IP once daily for three days, 2 weeks): did not develop tolerance
- Paw Withdrawal Latency (sec), CCI ([6]; 2 hours post treatment): 4.3 ± 1.2 s
- Paw Withdrawal Latency (sec), CCI ([6]; 6 hours post treatment): 6.0 ± 0.6 s
- Paw Withdrawal Latency (sec), CCI ([6]; 24 hours post treatment): 5.0 ± 0.5 s
- thermal hypersensitivity ([6]; CCI rats): ameliorated the thermal hypersensitivity
- CCI-induced CXCL1 and TNF expression (DRGs) ([6]; DRGs): reduce CCI-induced CSCL1 and TNF expression
- CCI-induced CXCL1, TNF and IL-1β expression (spine) ([6]; spine): reduce CCI-induced CSCL1, TNF and IL-1β expression
- Plasma concentration ([7]; 0.50 hr): 2913 ng/mL
- Plasma concentration ([7]; 1.0 hr): 1091 ng/mL
- Plasma concentration ([7]; 2.0 hr): 135 ng/mL
- Plasma concentration ([7]; 4.0 hr): 16.6 ng/mL
- Plasma concentration ([7]; 8.0 hr): 1.52 ng/mL
- Plasma concentration ([8]; 0.5 hr): 2500 ng/mL
- Plasma concentration ([8]; 1 hr): 1300 ng/mL
- Plasma concentration ([8]; 2 hr): 130 ng/mL
- Plasma concentration ([8]; 6 hr): 5.10 ng/mL
- Plasma concentration ([8]; 8 hr): 2.01 ng/mL
- degradation after incubating 120 minutes [9]: not degraded
- tolerability [10]: well-tolerated
- oral bioavailability [11]: low
- TNF secretion induced by other DAMPs [12]: is not inhibited
- liver inflammation (H&E, neutrophil infiltration) [13]: reduced inflammation
- insulitis [14]: reduces insulitis
- weight gain [14]: improves weight gain
- hyperglycemia ([14]; vs AI5779 or PBS controls): delays hyperglycemia

SMILES: NC(=O)[C@H](CCC(=O)O)NC(=O)[C@H](CO)NC(=O)[C@H](CO)NC(=O)[C@@H](N)Cc1ccccc1 [P5779]
- HMGB1-induced TNF release from macrophages [15]: inhibit HMGB1-induced TNF release from macrophages in a concentration-dependent manner
- serum ALT ([16]; 500 ugs/mouse): significant reductions in ALT
- liver necrosis (H&E) ([16]; APAP 350 mg/kg, P5779 50 or 500 μg/mouse IP at 2 and 7 hours, vs scrambled control peptide): reduced liver necrosis
- percent survival (2 weeks) post-APAP ([16]; APAP 400 mg/kg, 500 μg/mouse IP once a day for 5 days): significantly improved
- serum levels of ALT and AST ([17]; 500 μg/mouse IP at time of I/R surgery, 6 hours): reduced
- liver inflammation (H&E, neutrophil infiltration) ([17]; 6 hours after reperfusion, vs vehicle control): reduced inflammation
- TNF release in macrophages stimulated by LPS, PGN, Poly I:C, CpG DNA or S100 A12 [18]: not suppress TNF release
